Data on six molecules can be found in US20240215578A1 (priority 2022, published 2024).

Series [1] deals with R. solanacearum. The class given is cell-based. As to conditions: Oxford cup, 37° C., 16-18 hours, FIG. 1.
Series [2] relates to R. solanacearum. The conditions noted are these: for bactericidal activity against R. solanacearum: from data in Table 4.

What is called LC50 is the concentration that kills 50% of the test population. Higher therefore signals lower toxicity. Turning to `O=C(O)c1cn(C2CC2)c2ccccc2c1=O` [Compound I2], the “bactericidal activity (zone of inhibition), preliminary screening” value with R. solanacearum [1] is listed as “significant bactericidal activity”. Besides, the LC50 is listed as 5.284 ppm in the series with E. carotovora, 13.790 ppm with R. solanacearum [2] and 0.913 ppm in the series with E. coli. Also, in the series on E. coli, the “activity against E. coli compared with the control drugs” value is reported as “more active against E. coli than the control drugs”.

In the case of `CCn1cc(C(=O)O)c(=O)c2ccc(C)nc21` [Compound I36], the “bactericidal activity (zone of inhibition), preliminary screening” value in the series with R. solanacearum [1] is given as “significant bactericidal activity”. The figures for the 50% lethal concentration (LC50) in the series on E. carotovora, with R. solanacearum [2] and with E. coli were 15.743 ppm, 30.519 ppm and 37.917 ppm, respectively.

As to `CCn1cc(C(=O)O)c(=O)c2cc(F)c(Cl)nc21` [Compound I38], in the series on R. solanacearum [1], the “bactericidal activity (zone of inhibition), preliminary screening” value was “significant bactericidal activity”. Also, the LC50 in the series on E. carotovora was found to be 0.264 ppm; with R. solanacearum [2], 12.724 ppm; with E. coli it was 12.643 ppm. Also, in the series on E. carotovora, the “activity against E. carotovora compared with the control drugs” value is “more active against E. carotovora than the control drugs”.

For `O=C(O)c1cn(C2CC2)c2nc(Cl)c(F)cc2c1=O` [Compound I40], the “bactericidal activity (zone of inhibition), preliminary screening” value in the series with R. solanacearum [1] is reported as “significant bactericidal activity”. For the same molecule, in the series with E. carotovora, the LC50 amounted to 4.040 ppm and the “activity against E. carotovora compared with the control drugs” value is “more active against E. carotovora than the control drugs”. In the series with R. solanacearum [2], the 50% lethal concentration (LC50) stood at 0.002 ppm and the “bactericidal activity against R. solanacearum” value was “significant bactericidal activity”. Also, in the series with E. coli, the median lethal concentration (LC50) worked out at 0.064 ppm and the “activity against E. coli compared with the control drugs” value was “more active against E. coli than the control drugs”.

On to `O=C(O)c1cn(C2CC2)c2nc(N3CCNCC3)c(F)cc2c1=O` [Compound I44], for which the “bactericidal activity (zone of inhibition), preliminary screening” value with R. solanacearum [1] is “significant bactericidal activity”. For the same molecule, in the series with E. carotovora, the LC50 is given as 0.00018 ppm and the “activity against E. carotovora compared with the control drugs” value is “more active against E. carotovora than the control drugs”. Moreover, in the series on R. solanacearum [2], the LC50 came to 0.284 ppm and the “bactericidal activity against R. solanacearum” value is listed as “significant bactericidal activity”. Further, in the series on E. coli, the LC50 was 0.0000091 ppm and the “activity against E. coli compared with the control drugs” value is given as “more active against E. coli than the control drugs”.

As to `[H]/N=C(/N)N[C@H]1[C@H](O)[C@@H](O)[C@H](O[C@@H]2O[C@@H](C)[C@](O)(C=O)[C@H]2O[C@@H]2O[C@@H](CO)[C@H](O)[C@@H](O)[C@@H]2NC)[C@@H](N/C(N)=N\[H])[C@@H]1O` [Streptomycin, reference compound], the LC50 in the series on E. carotovora stood at 4.519 ppm; with R. solanacearum [2], 0.169 ppm; in the series on E. coli, 1.918 ppm.
